The source of these data is patent US9670469B2, “UDP-glycosyltransferase derived from ginseng and use thereof” (KOREA ADVANCED INSTITUTE OF SCIENCE AND TECHNOLOGY, priority 2012, dated 2017).

One assay has as its system PgUGT74A1 and PgUGT94B1. Briefly: Both enzymes reacted with the substrate in a single reaction tube, HPLC. It counts as biochemical, Panax ginseng. Particulars: UDP-Glc. The method, then:
PPD (upper panel) or C-K (lower panel) was incubated with both of PgUGT74A1 and PgUGT94B1 in the presence of UDP-Glc. Then the reaction mixture was analyzed by HPLC. […] Rg3 and Rd converted by the above two enzymes are marked as black triangles;
(§1) A glycosyltransferase assay was performed in a reaction buffer (10 mM PBS buffer, pH 7) containing the purified PgUGT74A1 or PgUGT94B1 (30 μg), a ginsenoside compound (5 mM) and UDP-glucose (50 mM).
(§2) The reaction mixture was incubated at 35° C. for 12 hours, and then the products were analyzed by thin-layer chromatography (TLC) or high performance liquid chromatography (HPLC).
(§3) HPLC analysis was performed using ODS (2) C18 column (Phenomenex, USA). Water and acetonitrile gradient application time; and a component ratio are as follows: at a flow rate of 1 ml per minute for 0 minute, 68% water and 32% acetonitrile; 8 minutes, 35% water and 65% acetonitrile; 12 minutes, 0% water and 100% acetonitrile; 20 minutes, 0% water and 100% acetonitrile; 20.1 minutes, 68% water and 32% acetonitrile; and 28 minutes, 68% water and 32% acetonitrile.
(§4) Ginsenosides were detected by using a UV-detector (Younglin, Korea) at a wavelength of 203 nm.
In order to confirm this, the above two enzymes were reacted with PPD as a substrate in a single reaction tube. […] In addition, the two enzymes were reacted with C-K as a substrate in a single reaction tube.

In assay [1] the target is T1, PgUGT94B1 (Panax ginseng, UniProt A0A0A6ZFY4).
T1 construct: GST (N); made in house; host or cells: E. coli BL21-CodonPlus (DE3)-RIL
T1 sequence (A0A0A6ZFY4 1-442): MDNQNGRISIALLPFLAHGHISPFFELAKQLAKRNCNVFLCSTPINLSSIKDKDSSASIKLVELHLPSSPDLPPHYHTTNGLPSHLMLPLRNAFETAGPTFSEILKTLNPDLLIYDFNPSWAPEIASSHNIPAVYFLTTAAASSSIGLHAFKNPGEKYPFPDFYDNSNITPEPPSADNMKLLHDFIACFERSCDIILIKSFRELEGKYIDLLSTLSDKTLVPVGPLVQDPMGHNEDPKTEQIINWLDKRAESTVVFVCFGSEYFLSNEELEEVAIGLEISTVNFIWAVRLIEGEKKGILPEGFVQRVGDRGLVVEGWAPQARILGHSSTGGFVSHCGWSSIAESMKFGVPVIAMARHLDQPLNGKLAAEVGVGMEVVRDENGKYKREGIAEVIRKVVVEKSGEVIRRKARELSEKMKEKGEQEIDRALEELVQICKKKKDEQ
Briefly: In vitro glycosyltransferase assay with purified recombinant PgUGT94B1 and UDP-glucose. The following applies: 30 μg enzyme, 5 mM ginsenoside, 50 mM UDP-glucose, 35° C., 12 hours. Type of assay: biochemical. The method, then: as §1, §2
(§5) TLC analysis was performed using a mobile phase (acetone:methanol:DDW=65:35:10 vol/vol) and a 60F254 silica gel plate (Merck, Germany). The resolved product on the TLC plate was detected by spraying the plate with 10% (vol/vol) sulfuric acid (H2SO4) and heating it at 110° C. for 5 minutes.
as §3, §4
First, the recombinant PgUGT of Example 1, PgUGT94B1, was incubated with 10 different types of ginsenosides (PPD, C-K, Rh2, F2, Rg3, Rd, Rg2, Rh1, F1 and PPT) in the presence of UDP-glucose, and then the products converted by the recombinant PgUGT were analyzed by TLC.

Assay [2] addresses T2, PgUGT74A1 (Panax ginseng, UniProt A0A0A6ZFR4).
T2 construct: GST (N); made in house; host or cells: E. coli BL21-CodonPlus (DE3)-RIL
T2 sequence (A0A0A6ZFR4 1-451): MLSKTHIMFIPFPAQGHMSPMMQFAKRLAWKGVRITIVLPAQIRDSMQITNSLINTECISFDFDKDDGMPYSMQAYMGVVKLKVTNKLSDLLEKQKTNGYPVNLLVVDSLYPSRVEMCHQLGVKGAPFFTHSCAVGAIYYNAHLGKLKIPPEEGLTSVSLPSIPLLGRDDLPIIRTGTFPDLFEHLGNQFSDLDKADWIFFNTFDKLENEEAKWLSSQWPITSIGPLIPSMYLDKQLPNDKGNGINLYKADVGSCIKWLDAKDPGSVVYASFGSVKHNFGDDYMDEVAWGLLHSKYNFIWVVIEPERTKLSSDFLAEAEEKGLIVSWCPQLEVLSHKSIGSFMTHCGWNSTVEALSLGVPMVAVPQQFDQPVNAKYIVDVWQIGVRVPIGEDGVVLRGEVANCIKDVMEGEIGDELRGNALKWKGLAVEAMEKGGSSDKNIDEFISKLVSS
Put plainly: In vitro glycosyltransferase assay with purified recombinant PgUGT74A1 and UDP-glucose. It counts as biochemical. Particulars: for ginsenoside into which the substrate is converted by PgUGT74A1: 30 μg enzyme, 5 mM ginsenoside, 50 mM UDP-glucose, 35° C., 12 hours. The method, then:
as §1, §2, §5, §3, §4
First, the recombinant PgUGT of Example 1, PgUGT74A1, was incubated with 10 different types of ginsenosides (PPD, C-K, Rh2, F2, Rg3, Rd, Rg2, Rh1, F1 and PPT) in the presence of UDP-glucose, and the products converted by the recombinant PgUGT were analyzed by TLC.

The subject of assay [3] is PgPPTS (protopanaxatriol synthase). Put plainly: Quantitative RT-PCR of PgPPTS in ginseng leaf after MeJA spraying. Particulars: ginseng leaves, 200 μM MeJA sprayed everyday for 5 days, sampled 6th day; normalized to tubulin. Type of assay: in vivo, Panax ginseng. The method, then: (§6) Total RNA was isolated from the leaf or root of 15-month-old ginseng using a spectrum plant total RNA kit (Sigma-Aldrich). 200 μM methyl jasmonate (MeJA) was sprayed onto the leaves of ginseng everyday for a total of 5 days, and samples were collected on the 6th day. The 1 μg of total RNA was used for cDNA synthesis.
(§7) Expression levels of different genes were examined by a quantitative RT-PCR using the primer sets listed in the following Table 2, and the results were normalized to the expression level of tubulin.
(§8) The 15-month old ginseng grown in a growth chamber under LD conditions was collected, and MeJA was sprayed onto its leaves everyday for a total of 5 days. To analyze expression level of the ginsenoside biosynthetic genes, samples were collected on the 6th days. […] However, expression of PgPPTS was not induced by MeJA under the conditions of the present invention.

A further assay has as its system ginseng. Put plainly: Concentrations of 4 major ginsenosides after spraying MeJA onto the leaf of ginseng. It counts as in vivo, Panax ginseng.
Description: MeJA was sprayed on the leaf everyday for a total of 5 days, and on the 6th day after the start of the treatment, samples were collected for the expression analysis. […] Error bars show a standard deviation (SD) of three biological replicates; and
as §8
In this regard, the concentrations of 4 major ginsenosides were measured after spraying MeJA onto the leaf of ginseng. The treatment of MeJA increased the concentrations of two PPD-type ginsenosides, Rd and Rb1, by 1.55 and 1.14 times respectively (FIG. 6c). In addition, the treatment of MeJA increased the concentrations of two PPT-type ginsenosides, Rg1 and Re, by 2.61 and 1.45 times respectively.

For assay [4], the system named is PgUGT94B1. Briefly: Quantitative RT-PCR of PgUGT94B1 in ginseng leaf after MeJA spraying. It counts as in vivo, Panax ginseng. Particulars: ginseng leaves, 200 μM MeJA sprayed everyday for 5 days, sampled 6th day; normalized to tubulin. The protocol: as §6, §7, §8
Assay [5] concerns PgUGT74A1. Briefly: Quantitative RT-PCR of PgUGT74A1 in ginseng leaf after MeJA spraying. It counts as in vivo, Panax ginseng. The following applies: ginseng leaves, 200 μM MeJA sprayed everyday for 5 days, sampled 6th day; normalized to tubulin. The method, then:
as §6, §7, §8

The test system of assay [6] is PgDS (dammarenediol-II synthase). Put plainly: Quantitative RT-PCR of PgDS in ginseng leaf after MeJA spraying. The following applies: ginseng leaves, 200 μM MeJA sprayed everyday for 5 days, sampled 6th day; normalized to tubulin. It counts as in vivo, Panax ginseng. The protocol: as §6, §7, §8
Assay [7] concerns PgPPDS (protopanaxadiol synthase). Put plainly: Quantitative RT-PCR of PgPPDS in ginseng leaf after MeJA spraying. It counts as in vivo, Panax ginseng. The following applies: ginseng leaves, 200 μM MeJA sprayed everyday for 5 days, sampled 6th day; normalized to tubulin. The method, then:
as §6, §7, §8

Each structure is given as a SMILES string.

For `CC(C)=CCC[C@](C)(O[C@@H]1O[C@H](CO)[C@@H](O)[C@H](O)[C@H]1O)[C@H]1CC[C@]2(C)[C@@H]1[C@H](O)C[C@@H]1[C@@]3(C)CC[C@H](O)C(C)(C)[C@@H]3CC[C@]12C` [C-K, Compound K], in the assay with PgUGT74A1 and PgUGT94B1, the “ginsenoside into which the substrate is converted by PgUGT74A1 plus PgUGT94B1” value is given as “Rd”. The “ginsenoside into which the substrate is converted by PgUGT94B1” value on PgUGT94B1 [1] (HPLC) is recorded as “did not convert”. Further, the “ginsenoside into which the substrate is converted by PgUGT74A1” value at PgUGT74A1 [2] (TLC) is “ginsenoside F2”.

As to `CC(C)=CCC[C@](C)(O)[C@H]1CC[C@]2(C)[C@@H]1[C@H](O)C[C@@H]1[C@@]3(C)CC[C@H](O)C(C)(C)[C@@H]3[C@@H](O)C[C@]12C` [PPT, Protopanaxatriol], the “glycosylation by PgUGT74A1 of the hydroxyl groups at the C-3, C-6, C-12 and C-20 positions” value on PgUGT74A1 [2] (regioselectivity, PPT) is reported as “not glycosylated”.

Consider `CC/C=C\C[C@H]1C(=O)CC[C@@H]1CC(=O)OC` [MeJA, Methyl (1R,2R)-3-Oxo-2-(2Z)-2-pentenyl-cyclopentaneacetate], for which the “expression of PgPPTS” value in [3] is “not induced”. Further, in the assay on ginseng (PPD-type ginsenoside), the “increase of the concentration of ginsenoside Rb1” value is recorded as 1.14 times and the “increase of the concentration of ginsenoside Rd” value is reported as 1.55 times. Moreover, in the assay with ginseng (PPT-type ginsenoside), the “increase of the concentration of ginsenoside Re” value stood at 1.45 times and the “increase of the concentration of ginsenoside Rg1” value was 2.61 times. The “expression level of PgUGT94B1” value with PgUGT94B1 [4] is “higher expression level”. Besides, the “expression level of PgUGT74A1” value in the assay on PgUGT74A1 [5] was “higher expression level”. Also, in assay [6], the “expression of PgDS” value was “enhanced”. In addition, in [7], the “expression of PgPPDS” value was “enhanced”.

Take `CC(C)=CCC[C@](C)(O[C@@H]1O[C@H](CO)[C@@H](O)[C@H](O)[C@H]1O)[C@H]1CC[C@]2(C)[C@@H]1[C@H](O)C[C@@H]1[C@@]3(C)CC[C@H](O[C@@H]4O[C@H](CO)[C@@H](O)[C@H](O)[C@H]4O)C(C)(C)[C@@H]3CC[C@]12C` [ginsenoside F2]: the “ginsenoside into which the substrate is converted by PgUGT94B1” value is given as “Rd” on PgUGT94B1 [1] (HPLC) and “ginsenoside Rd” at PgUGT94B1 [1] (TLC). In addition, at PgUGT74A1 [2] (HPLC), the “ginsenoside into which the substrate is converted by PgUGT74A1” value is “did not convert”.

With `CC(C)=CCCC(C)(O)[C@H]1CC[C@]2(C)[C@@H]1[C@H](O)C[C@@H]1[C@@]3(C)CC[C@H](O)C(C)(C)[C@@H]3CC[C@]12C` (stereo in doubt) [PPD, Protopanaxadiol], the “ginsenoside into which the substrate is converted by PgUGT74A1 plus PgUGT94B1” value in the assay on PgUGT74A1 and PgUGT94B1 is “Rg3”. For the same compound, at PgUGT94B1 [1] (HPLC), the “ginsenoside into which the substrate is converted by PgUGT94B1” value is given as “did not convert”. Besides, the “ginsenoside into which the substrate is converted by PgUGT74A1” value at PgUGT74A1 [2] (HPLC) and on PgUGT74A1 [2] (TLC) was “ginsenoside Rh2” each time. For the same compound, the “glycosylation by PgUGT74A1 of the hydroxyl groups at the C-12 and C-20 positions” value at PgUGT74A1 [2] (regioselectivity, positions other than C-3 of PPD) was “not glycosylated”.

On to `CC(C)=CCC[C@](C)(O)[C@H]1CC[C@]2(C)[C@@H]1[C@H](O)C[C@@H]1[C@@]3(C)CC[C@H](O[C@@H]4O[C@H](CO)[C@@H](O)[C@H](O)[C@H]4O)C(C)(C)[C@@H]3CC[C@]12C` [ginsenoside Rh2], for which the “ginsenoside into which the substrate is converted by PgUGT94B1” value on PgUGT94B1 [1] (HPLC) and on PgUGT94B1 [1] (TLC) was “ginsenoside Rg3” throughout. Moreover, the “ginsenoside into which the substrate is converted by PgUGT74A1” value on PgUGT74A1 [2] (HPLC) was “did not convert”.
